Test results: patent publication US12673936B2, “Isoindolinone compounds, and uses thereof” (HANGZHOU GLUBIO PHARMACEUTICAL CO., LTD., priority 2021, dated 2026)
Like-named read-outs stand apart in the source and are kept apart here.

What was measured:
MV4-11 cells = assay: MV4-11 cell proliferation assay (CTG cell viability); type: cell-based; settings: 120 hours, read-out: CTG cell viability assay_MV4-11: IC50
Description: MV4-11 Cell Proliferation Assay
The following is an example of an assay that can be used to determine the dose-dependent, anti-proliferative activity of CK1α degradating compounds in an AML cell line such as MV4-11 (ATCC Cat #CRL-9591).
MV4-11 cells were seeded into a 384-well plate (Cat #3764, Corning) pre-spotted with DMSO or test compounds. Increasing concentrations of test compounds (ranging from 1×10^−3 μM to 10 μM at a 3.162-fold increment in a 10-point dose response assay; ranging from 3.162×10^−4 μM to 10 μM at a 3.162-fold increment in a 11-point dose response assay) or DMSO were dispensed into an empty 384-well plate using an a D300e digital dispenser (Tecan) or an Echo Acoustic Liquid Handler (Beckman Coulter). About 2,000 cells in 50 μL of culture media (IMDM plus 10% heat-inactivated FBS) were seeded per well. Assay plates were incubated at 37° C. with 5% CO2 for 120 hours. After that, 20 μL of the CellTiter-Glo Luminescent Cell Viability Assay Reagent (Cat #G7573, Promega) was added to each well and incubated at room temperature for 30 minutes. Luminescence was then measured with an EnVision plate reader (PerkinElmer) or a PHERAstar plate reader (BMG LABTECH). All cell growth inhibition curves were processed using Collaborative Drug Discovery Vault softwares (Burlingame, CA, www.collaborativedrug.com).
Cell viability reads in compound-treated wells were normalized to that of DMSO control and expressed as Percent of Control (PoC, y). A four Parameter Logistic Model was used to determine the compound's EC50 and DC50, using the following equation:
[formula] • A==lowest cell viability read normalized to DMSO control in response to compound treatment, as determined by curve fit • B=cell viability read in DMSO control • C=EC50 • D=Hill Slope • x=compound concentration • EC50=the concentration of compound when y=(B−A)/2 • IC50=the concentration of the compound when y=50% of DMSO control • y=cell viability read normalized to DMSO control Ymin=(A/B)*100% • Ymin represents the lowest cell viability % that can be achieved by the compound treatment in the assay.

HiBiT tagged GSPT1 = HiBiT tagged GSPT1 (Homo sapiens, UniProt P15170+Q96SW2); assay: GSPT1 degradation assay (HiBiT assay); type: cell-based; settings: 20 hours, maximum GSPT1 degradation; for Dmax: HT-1080, HT-1080 cells; for HiBiT GSPT1: Dmax: HT-1080 cells
Chain of HiBiT tagged GSPT1 (P15170 whole entry): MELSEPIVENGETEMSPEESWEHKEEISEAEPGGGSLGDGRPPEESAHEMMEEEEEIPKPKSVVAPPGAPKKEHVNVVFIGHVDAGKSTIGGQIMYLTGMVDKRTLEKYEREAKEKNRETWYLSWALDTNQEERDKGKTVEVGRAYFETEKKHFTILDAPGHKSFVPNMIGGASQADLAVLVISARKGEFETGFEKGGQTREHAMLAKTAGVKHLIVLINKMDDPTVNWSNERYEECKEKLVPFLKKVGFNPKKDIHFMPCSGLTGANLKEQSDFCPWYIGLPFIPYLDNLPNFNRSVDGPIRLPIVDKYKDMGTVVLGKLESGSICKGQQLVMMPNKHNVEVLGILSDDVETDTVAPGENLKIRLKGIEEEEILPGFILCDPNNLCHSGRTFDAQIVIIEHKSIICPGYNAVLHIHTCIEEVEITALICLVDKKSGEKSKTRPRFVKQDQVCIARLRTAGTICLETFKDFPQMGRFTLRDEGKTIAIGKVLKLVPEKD
Chain of HiBiT tagged GSPT1 (Q96SW2 whole entry): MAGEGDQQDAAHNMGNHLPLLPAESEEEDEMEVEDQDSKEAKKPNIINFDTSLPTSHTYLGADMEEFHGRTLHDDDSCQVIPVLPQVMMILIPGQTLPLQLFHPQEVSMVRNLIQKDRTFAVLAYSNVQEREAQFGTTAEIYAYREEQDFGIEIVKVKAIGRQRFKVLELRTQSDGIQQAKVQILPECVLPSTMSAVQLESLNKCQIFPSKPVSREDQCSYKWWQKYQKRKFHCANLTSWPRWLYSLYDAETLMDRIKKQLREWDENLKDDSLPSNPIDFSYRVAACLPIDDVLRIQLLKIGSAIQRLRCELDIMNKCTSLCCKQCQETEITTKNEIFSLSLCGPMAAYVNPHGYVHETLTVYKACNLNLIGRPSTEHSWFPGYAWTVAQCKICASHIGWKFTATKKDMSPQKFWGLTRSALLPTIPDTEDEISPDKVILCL
Chain of HiBiT tagged GSPT1 (Q16531 whole entry partner): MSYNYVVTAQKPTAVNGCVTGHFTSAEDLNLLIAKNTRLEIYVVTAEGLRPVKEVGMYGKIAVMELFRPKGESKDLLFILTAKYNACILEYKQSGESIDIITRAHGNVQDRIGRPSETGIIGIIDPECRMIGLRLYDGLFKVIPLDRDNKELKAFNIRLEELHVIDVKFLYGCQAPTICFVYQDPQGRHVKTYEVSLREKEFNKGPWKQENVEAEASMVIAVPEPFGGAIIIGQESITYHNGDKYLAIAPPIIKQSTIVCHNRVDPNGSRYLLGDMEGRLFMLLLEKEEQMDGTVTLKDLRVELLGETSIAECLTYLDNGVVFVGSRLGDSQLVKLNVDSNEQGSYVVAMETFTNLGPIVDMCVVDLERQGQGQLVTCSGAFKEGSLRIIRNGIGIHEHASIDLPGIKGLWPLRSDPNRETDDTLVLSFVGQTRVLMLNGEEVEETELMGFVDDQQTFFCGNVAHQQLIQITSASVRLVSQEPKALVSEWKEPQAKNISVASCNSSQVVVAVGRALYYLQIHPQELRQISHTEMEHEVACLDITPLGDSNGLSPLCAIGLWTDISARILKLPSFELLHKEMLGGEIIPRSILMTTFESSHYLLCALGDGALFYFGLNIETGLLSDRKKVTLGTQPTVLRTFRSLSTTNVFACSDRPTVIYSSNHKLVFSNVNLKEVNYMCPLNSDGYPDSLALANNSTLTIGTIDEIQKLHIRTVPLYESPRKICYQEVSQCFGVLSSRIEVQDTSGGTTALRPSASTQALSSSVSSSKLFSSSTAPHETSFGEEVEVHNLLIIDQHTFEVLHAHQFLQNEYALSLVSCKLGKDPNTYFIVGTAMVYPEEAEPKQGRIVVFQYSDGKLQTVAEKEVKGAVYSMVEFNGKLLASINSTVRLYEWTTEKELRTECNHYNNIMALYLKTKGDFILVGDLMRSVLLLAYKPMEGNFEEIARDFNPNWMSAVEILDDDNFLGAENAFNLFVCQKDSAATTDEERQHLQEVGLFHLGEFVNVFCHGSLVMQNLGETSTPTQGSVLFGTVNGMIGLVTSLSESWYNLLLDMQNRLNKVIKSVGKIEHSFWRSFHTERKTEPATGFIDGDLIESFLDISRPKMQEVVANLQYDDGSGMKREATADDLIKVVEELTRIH
In short: (§1)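 HT-1080 cells stably expressing wild-type CRBN, GSPT1A(1-138)/G575N and HiBiT-tagged CK1α or GSPT1, ~10,000/well, treated with compound from 3.162×10^-4 μM to 10 μM (3.16-fold steps). HiBiT luminescence normalized to DMSO as percent of control.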

HiBiT tagged CK1α = HiBiT tagged CK1α (Homo sapiens, UniProt P48729+Q96SW2); assay: CK1α degradation assay (HiBiT assay); type: cell-based; settings: 20 hours; for Dmax: HT-1080, HT-1080 cells; for Dmax / HiBiT CK1α: Dmax: maximum CK1α degradation; for DC50 / HiBiT CK1α: Dmax: HT-1080 cells; for DC50: concentration at 50% CK1α degradation
Chain of HiBiT tagged CK1α (P48729 whole entry): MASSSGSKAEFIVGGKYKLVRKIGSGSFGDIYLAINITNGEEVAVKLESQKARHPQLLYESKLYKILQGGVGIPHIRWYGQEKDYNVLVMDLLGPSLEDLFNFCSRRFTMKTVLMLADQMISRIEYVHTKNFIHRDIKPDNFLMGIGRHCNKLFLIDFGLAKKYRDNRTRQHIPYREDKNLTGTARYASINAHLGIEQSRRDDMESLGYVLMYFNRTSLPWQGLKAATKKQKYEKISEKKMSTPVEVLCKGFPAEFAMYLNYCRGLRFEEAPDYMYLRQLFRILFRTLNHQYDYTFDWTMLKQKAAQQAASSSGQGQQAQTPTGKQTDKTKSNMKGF
Chain of HiBiT tagged CK1α (Q96SW2 whole entry): as the sequence (Q96SW2 whole entry) above
Chain of HiBiT tagged CK1α (Q16531 whole entry partner): as the sequence (Q16531 whole entry partner) above
In short: as §1

[1] = Pharmacokinetic study of single intravenous and oral administration in mouse; type: in vivo; settings: for C0 / clearance / half-life / Vd / AUC(0-inf) / Cmax / Tmax: plasma; for Vd: read-out: Vss
Description: The pharmacokinetic study of single intravenous and oral administration in mouse Sample collection and preparation: After intravenous injection or oral administration of test compounds, blood samples were collected and the blood collection time was recorded. After the blood sample was collected, it was immediately transferred into a labeled centrifuge tube containing K2-EDTA, followed by centrifugation and plasma collection. The plasma was then transferred into a pre-cooled centrifuge tube, quickly frozen on dry ice, and stored in an ultra-low temperature refrigerator at −70±10° C. until the LC-MS/MS analysis was performed.
Pharmacokinetic data analysis: The pharmacokinetic software was used to process the plasma drug concentration data of the compound in a non-compartmental model. The peak concentration (Cmax), peak time (Tmax) and quantifiable end time can be directly obtained from the plasma concentration-time diagram. The log-linear trapezoidal method was used to calculate the following pharmacokinetic parameters: half-life (T1/2), apparent volume of distribution (Vdss) and clearance (Cl), and the area under the time-plasma concentration curve (AUC0-inf) from the 0 point to the end point.

Row | SMILES | IC50 (MV4-11 cells; Homo sapiens) [nM] | Dmax (HiBiT tagged GSPT1) [%] | Dmax (HiBiT tagged CK1α) [%] | DC50 (HiBiT tagged CK1α) [nM] | also measured
1 | O=C1CCC(N2Cc3cc(C(=O)N[C@H](c4ccc(F)cn4)C4CCC4)ccc3C2=O)C(=O)N1 (stereo in doubt) [Compound 78, N-((*S)-cyclobutyl(5-fluoropyridin-2-yl)methyl)-2-(2,6-dioxopiperidin-3-yl)-1-oxoisoindoline-5-carboxamide] | 176 | 14.4 | 67.2 | 198 | 
2 | O=C1CC[C@H](N2Cc3cc(C(=O)N[C@H](c4ccc(F)cc4)C4CCC4)ccc3C2=O)C(=O)N1 (single isomer, unassigned) [Compound 9, N—((*S)-cyclobutyl(4-fluorophenyl)methyl)-2-((S)-2,6-dioxopiperidin-3-yl)-1-oxoisoindoline-5-carboxamide] | 172 | 22.6 | 71.6 | 116 | 
3 | O=C1CCC(N2Cc3cc(C(=O)N[C@H](c4ccc(F)cn4)C4(F)CCC4)ccc3C2=O)C(=O)N1 (stereo in doubt) [Compound 86, 2-(2,6-dioxopiperidin-3-yl)-N-((*R)-(1-fluorocyclobutyl)(5-fluoropyridin-2-yl)methyl)-1-oxoisoindoline-5-carboxamide] | 142 | 18.2 | 63 | 193 | F ([1]; 10 mg/kg, PO): 70.4%; C0 ([1]; 2 mg/kg, IV): 4910 ng/mL; clearance ([1]; 2 mg/kg, IV): 7.85 mL/min/kg; half-life ([1]; 2 mg/kg, IV): 217 min; Vd ([1]; 2 mg/kg, IV): 0.87 L/kg; AUC(0-inf) ([1]; 10 mg/kg, PO): 14900 ng·h/mL; Cmax ([1]; 10 mg/kg, PO): 5690 ng/mL; Tmax ([1]; 10 mg/kg, PO): 30 min; half-life ([1]; 10 mg/kg, PO): 127 min
4 | O=C1CCC(N2Cc3cc(C(=O)N[C@H](c4ncccc4-c4ccc(F)cc4)C4CCC4)ccc3C2=O)C(=O)N1 (stereo in doubt) [Compound 83, N—((*S)-cyclobutyl(3-(4-fluorophenyl)pyridin-2-yl)methyl)-2-(2,6-dioxopiperidin-3-yl)-1-oxoisoindoline-5-carboxamide] | 27 | 14.4 | 66 | 115 | 
5 | O=C1CCC(N2Cc3cc(C(=O)N[C@H](c4ncc(Cl)cc4Cl)C4CCC4)ccc3C2=O)C(=O)N1 (stereo in doubt) [Compound 79, N-((*S)-cyclobutyl(3,5-dichloropyridin-2-yl)methyl)-2-(2,6-dioxopiperidin-3-yl)-1-oxoisoindoline-5-carboxamide] | 176 | 20.4 | 65.9 | 274 | 
6 | O=C1CCC(N2Cc3cc(C(=O)N[C@H](c4ccc(F)cc4)C4CC(F)(F)C4)ccc3C2=O)C(=O)N1 (single isomer, unassigned) [Compound 6] | 691 | 30.1 | 60.9 |  | 
7 | O=C1CCC(N2Cc3cc(C(=O)N[C@H](c4ccc(Cl)cn4)C4CCC4)ccc3C2=O)C(=O)N1 (stereo in doubt) [Compound 76, N—((*S)-(5-chloropyridin-2-yl)(cyclobutyl)methyl)-2-(2,6-dioxopiperidin-3-yl)-1-oxoisoindoline-5-carboxamide] |  |  |  | 219 | IC50 (MV4-11 cells): 71 nM; HiBiT GSPT1: Dmax (HiBiT tagged GSPT1): 23.5%; HiBiT CK1α: Dmax (HiBiT tagged CK1α): 64.4%
8 | Cn1cc(-c2cccnc2[C@@H](NC(=O)c2ccc3c(c2)CN([C@H]2CCC(=O)NC2=O)C3=O)C2CCC2)cn1 (single isomer, unassigned) [Compound 84, N—((*S)-cyclobutyl(3-(1-methyl-1H-pyrazol-4-yl)pyridin-2-yl)methyl)-2-((S)-2,6-dioxopiperidin-3-yl)-1-oxoisoindoline-5-carboxamide] | 24 | 15.2 | 72.4 | 74.1 | 
9 | O=C1CCC(N2Cc3cc(C(=O)N[C@H](c4ccc(Cl)cc4)C4CCC4)ccc3C2=O)C(=O)N1 (stereo in doubt) [Compound 36, N-((*S)-(4-chlorophenyl)(cyclobutyl)methyl)-2-(2,6-dioxopiperidin-3-yl)-1-oxoisoindoline-5-carboxamide] | 128 | 24.6 | 65.8 | 66.7 | 
10 | O=C1CCC(N2Cc3cc(C(=O)N[C@@H](c4ccc(F)cc4F)C4CCC4)ccc3C2=O)C(=O)N1 (stereo in doubt) [Compound 42, N-((*R)-cyclobutyl(2,4-difluorophenyl)methyl)-2-(2,6-dioxopiperidin-3-yl)-1-oxoisoindoline-5-carboxamide] | 420 | 40.8 | 57.7 | 1150 | 
11 | O=C1CCC(N2Cc3cc(C(=O)N[C@H](c4ncc(Cl)cc4F)C4(F)CCC4)ccc3C2=O)C(=O)N1 (stereo in doubt) [Compound 89, N-((*R)-(5-chloro-3-fluoropyridin-2-yl)(1-fluorocyclobutyl)methyl)-2-(2,6-dioxopiperidin-3-yl)-1-oxoisoindoline-5-carboxamide] | 198 | 17.3 | 69 | 148 | 
12 | O=C1CCC(N2Cc3cc(C(=O)N[C@@H](c4ccc(F)cc4)C4CC(F)(F)C4)ccc3C2=O)C(=O)N1 (single isomer, unassigned) [Compound 5] | 363 | 30.3 | 75.9 |  | 
13 | O=C1CCC(N2Cc3cc(C(=O)N[C@H](c4ncccc4Cl)C4(F)CCC4)ccc3C2=O)C(=O)N1 (stereo in doubt) [Compound 87, N-[(*R)-(3-chloro-2-pyridyl)-(1-fluorocyclobutyl)methyl]-2-(2,6-dioxo-3-piperidyl)-1-oxo-isoindoline-5-carboxamide] | 133 | 25 | 59.8 | 279 | 
14 | O=C1CC[C@H](N2Cc3cc(C(=O)N[C@H](c4ccc(Cl)cn4)C4CCC4)ccc3C2=O)C(=O)N1 (single isomer, unassigned) [Compound 82] | 60 | 16.2 | 66.3 |  | C0 ([1]; 2 mg/kg, IV): 6800 ng/mL; clearance ([1]; 2 mg/kg, IV): 10.5 mL/min/kg; half-life ([1]; 2 mg/kg, IV): 80.4 min; Vd ([1]; 2 mg/kg, IV): 0.85 L/kg; AUC(0-inf) ([1]; 10 mg/kg, PO): 13300 ng·h/mL; Cmax ([1]; 10 mg/kg, PO): 6080 ng/mL; Tmax ([1]; 10 mg/kg, PO): 40.2 min; half-life ([1]; 10 mg/kg, PO): 122 min
15 | O=C1CC[C@@H](N2Cc3cc(C(=O)N[C@H](c4ccc(F)cc4)C4CCC4)ccc3C2=O)C(=O)N1 (relative stereo) [Compound 8, N—((*S)-cyclobutyl(4-fluorophenyl)methyl)-2-((R)-2,6-dioxopiperidin-3-yl)-1-oxoisoindoline-5-carboxamide] |  |  |  | 160 | IC50 (MV4-11 cells): 205 nM; HiBiT GSPT1: Dmax (HiBiT tagged GSPT1): 23.4%; HiBiT CK1α: Dmax (HiBiT tagged CK1α): 72.9%
16 | O=C1CCC(N2Cc3cc(C(=O)N[C@H](c4ccc(F)cc4F)C4CCC4)ccc3C2=O)C(=O)N1 (stereo in doubt) [Compound 41, N-((*S)-cyclobutyl(2,4-difluorophenyl)methyl)-2-(2,6-dioxopiperidin-3-yl)-1-oxoisoindoline-5-carboxamide] | 115 | 24.9 | 70.5 | 82.4 | F ([1]; 10 mg/kg, PO): 76.8%; C0 ([1]; 2 mg/kg, IV): 1860 ng/mL; clearance ([1]; 2 mg/kg, IV): 23 mL/min/kg; half-life ([1]; 2 mg/kg, IV): 170 min; Vd ([1]; 2 mg/kg, IV): 3.2 L/kg; AUC(0-inf) ([1]; 10 mg/kg, PO): 5870 ng·h/mL; Cmax ([1]; 10 mg/kg, PO): 1570 ng/mL; Tmax ([1]; 10 mg/kg, PO): 49.8 min; half-life ([1]; 10 mg/kg, PO): 163 min
17 | O=C1CCC(N2Cc3cc(C(=O)NC(c4ncccc4Cl)C4CC4)ccc3C2=O)C(=O)N1 (stereo not drawn) [Compound 16, N-((3-chloropyridin-2-yl)(cyclopropyl)methyl)-2-(2,6-dioxopiperidin-3-yl)-1-oxoisoindoline-5-carboxamide] |  | 44.9 | 62.2 | 303 | 
